Assay: Human HepG2 cell viability assay in 384 well format
Assay type: toxicity, cell-based
Set-up: dose 125 nL, time 70.5 hour; cytotoxicity at 70.5 h: concentration not given beside the values
Conditions: HepG2 cells, read-out: Inhibition

Row | SMILES | cytotoxicity at 70.5 h [%]
1 | CC(C)NC(=O)N1CCOC2(CCCN(c3ncccc3F)C2)C1 (stereo unspecified) | -13.6
2 | CCN(CCOC)C(=O)c1cc(COc2ccc3c(c2)CCCC3)on1 | -3.35
3 | COc1cc(C(=O)NC(CC(=O)O)c2cccs2)cc(Cl)c1OC (stereo unspecified) | -8.1
4 | COc1cccc(CCC2CCCN(C(=O)c3ccccn3)C2)c1 (stereo unspecified) | 17.8
5 | Cc1ccccc1OCCCC(=O)N(C)CCC#N | -5.57
6 | Cn1nc(CNC(=O)c2ccc(Cl)cc2)c2c1CCOC2 | 3.98
7 | Cc1nn(C)c(C)c1CN(C)C(=O)C1COc2ccccc2C1 (stereo unspecified) | -3.84
8 | CC(C)=CCN1C(=O)[C@H]2CC[C@@H]1CN(Cc1cccnc1N)C2 | -4.57
9 | Cc1ccc(-c2noc(C(C)NS(C)(=O)=O)n2)cc1 (stereo unspecified) | 21.2
10 | CCc1ccc(-n2nnc(C(=O)O)c2-c2ccccn2)cc1 | -26.2
11 | COc1ccc(-c2cc(C3CCCNC3)ccn2)cc1 (stereo unspecified) | -12.4
12 | Cc1cc(C)n(CCC(=O)N2CCCC(n3cncn3)C2)n1 (stereo unspecified) | 25.8
13 | CCN(CC)c1ncc(CNC2CCc3ncnn3C2)s1 (stereo unspecified) | -5.42
14 | CC(CCSc1ccccc1)N1CCN(C(=O)c2cccs2)CC1 (stereo unspecified) | 35.4
15 | CCc1cnc(N)nc1NCCCN1CCCCC1CO (stereo unspecified) | -8.8
16 | CNC(=O)COC(=O)c1ccn(-c2ccc(Cl)c(Cl)c2)n1 | 24.2
17 | O=C(Cc1ccc(F)cc1)N1CCCC(c2n[nH]c3nccnc23)C1 (stereo unspecified) | 11.2
18 | COc1cccc2c(=O)n(Cc3cc(C4CC4)[nH]n3)cnc12 | 0.602
19 | O=C(NCc1cccs1)[C@@H]1CC[C@@H]2[C@@H](CCN2CC2CCC2)O1 | -17.4
20 | O=C1COC2(CCN(c3ccccn3)CC2)CN1 | -19.6
21 | COCc1nc2cc3c(cc2c(=O)o1)OCCCO3 | -7.11

Row | SMILES | cytotoxicity at 70.5 h [%]
22 | CCS(=O)(=O)NCC(=O)Nc1cc(CC(C)(C)C)n[nH]1 | 0.46
23 | O=C(CN1CCC(OCC2CCCO2)CC1)NCC(F)(F)F (stereo unspecified) | -7.24
24 | O=C(NCC1CCS(=O)(=O)C1)N1CCN(c2cnccn2)CC1 (stereo unspecified) | 3.28
25 | CCn1ccc(C(=O)N(C)Cc2cnn(-c3cccc(OC)c3)c2)n1 | -11.2
26 | COc1cc(NC(=O)c2ccc(CN3CC[C@H](O)C3)cc2)cc(OC)c1 | -10.7
27 | COc1ccccc1OCc1nc2cc3c(cc2c(=O)o1)OCCCO3 | 31.8
28 | c1cnc(N2CCCC3(CCN(CC4CCOC4)CC3)C2)nc1 (stereo unspecified) | 19
29 | COc1ccc(CNC(=O)CNc2cc3c(cc2Cl)OCCCO3)cc1 | -5.19
30 | Cc1csc(C(Cc2cccs2)NCc2cc3c(cc2C)OCO3)n1 (stereo unspecified) | 17.6
31 | Cc1nc(C2CCN(C(=O)CO)CC2)cc(N2CCOCC2)n1 | -7.87
32 | Cc1cc(F)c(S(=O)(=O)NCc2ccnc(N(C)C)n2)cc1F | 29.1
33 | CCN(CC(=O)NC)C(=O)Cc1nc(-c2ccco2)oc1C | -7.15
34 | Cc1ccc(CC(=O)N(C)CC2(O)CCN(c3ccccn3)C2)s1 (stereo unspecified) | -6.87
35 | COCC(=O)N1CCO[C@]2(CCC[C@H]2COC)C1 | 9.79
36 | CCn1ccnc1CN1CCN(c2ccc3nnc(C)n3n2)CC1 | -8.35
37 | COc1ccc(CN(C)[C@@H]2COC[C@H]2c2ccc(F)cc2)cc1 | -10.1
38 | Cc1csc(N2CCN(CC(=O)Nc3ccncc3)CC2C)n1 (stereo unspecified) | 9.84
39 | CCOC(=O)C1CCN(C(=O)Cc2c(C)nc(C)[nH]c2=O)CC1 | 12.3
40 | O=C(Cc1ccc2c(c1)CCO2)N1CCCC(n2cccn2)C1 (stereo unspecified) | -12.1
41 | Cc1ccc(-c2noc(CN3CCOC(CN(C)C)C3)n2)cc1F (stereo unspecified) | -0.0729
42 | CC(=O)N1[C@H](Cn2cncn2)C[C@@H]2CN(C(=O)NC3CC3)CC[C@@H]21 | 5.13

Row | SMILES | cytotoxicity at 70.5 h [%]
43 | Cc1cc(N(C)CC2COc3ccccc3O2)nc(C)n1 (stereo unspecified) | 9.74
44 | COCCCN1CC2(CCCCN2C(=O)c2ccsc2)CC1=O (stereo unspecified) | 8.24
45 | COc1c(C2CCCN2C(=O)c2ccnc(C)n2)c(C)nn1C (stereo unspecified) | -12.9
46 | CN(C)CCn1c2c(ccc1=O)CC(NCc1cccnc1)CC2 (stereo unspecified) | -0.247
47 | CNC(=O)c1cccc(CNC(C)c2ccc(F)cc2N(C)C)c1 (stereo unspecified) | -7.51
48 | Cc1cc(C)c(CNC(=O)N2CCC(N3CCCC3)CC2)c(=O)[nH]1 | -7.61
49 | O=C(c1cccnn1)N1C[C@@H]2CC[C@H](Oc3cccc(F)c3)[C@@H]2C1 | 14.9
50 | CS(=O)(=O)N1CCC(n2nnn(-c3ccccc3)c2=O)CC1 | -1.71
51 | COc1ccc(-c2nc3c([nH]2)CCCNC3=O)cc1OC | 4.81
52 | Cc1ccc(-c2cc(CNC(=O)N3CCC(O)CC3)on2)cc1 | 0.512
53 | O=C(Nc1ccccn1)NC(CCCO)c1ccccc1 (stereo unspecified) | -5.11
54 | CN(Cc1cnn(C)c1)C(=O)NCc1ccc2c(c1)OCCO2 | 0.47
55 | CN(C)C(=O)CN1C[C@@H]2CC[C@H](C1)N(C(=O)Cc1ccccc1Cl)C2 | 8.11
56 | c1ccc(Oc2cc(CNCC3CNc4ccnn4C3)ccn2)cc1 (stereo unspecified) | -2.96
57 | Cc1cc(C)c(C(=O)N2CCc3c(ncn3CCc3ccccc3)C2)[nH]1 | -8.62
58 | c1ccc(CN2CCC3(CC2)Nc2ccccc2CO3)cc1 | -6.59
59 | COCC(=O)N1CCN(c2cc(-n3cccc3)nc(C)n2)CC1 | 5.98
60 | CCn1ncc2c1CCCC2NCc1ccc2c(c1)OCCO2 (stereo unspecified) | 4.09
61 | COCC(=O)N1CCC(c2cc(C(F)(F)F)n3ccnc3n2)CC1 | -8.3
62 | Cc1nn(C2CCS(=O)(=O)C2)c(O)c1Cc1ccccc1Cl (stereo unspecified) | -18.5
63 | COCC(O)CN(C)c1ccnc2cc(Br)ccc12 (stereo unspecified) | -6.19

Row | SMILES | cytotoxicity at 70.5 h [%]
64 | COc1cc(N2CCC3(CCCN3Cc3cnn(C)c3)CC2)ncn1 | -3.32
65 | c1ccc2nc(CN3CCCC3c3noc(C4CC4)n3)ccc2c1 (stereo unspecified) | 21.2
66 | CCn1ncc(-c2cc(C(F)(F)F)nc(N3CCC(N)CC3)n2)c1C | 8.37
67 | CC(C)CN1CC(O)CN(S(=O)(=O)c2ccccc2)CC1=O (stereo unspecified) | -10.6
68 | O=C(N1CCOCC1)N1CCc2ncnc(NC3CCC3)c2CC1 | -14.5
69 | CCc1cc(CNC(=O)NCC(c2ccco2)N2CCCC2)[nH]n1 (stereo unspecified) | -3.15
70 | CN1CC2(CCN(C(=O)c3cccc(-n4cccn4)c3)CC2)OC1=O | 21.3
71 | Cc1nc(CN2CCN(c3cc(CCN)ncn3)CC2)cs1 | -2.73
72 | CCOCCN1CCN(C(C)c2nc(C3CC3)no2)CC1 (stereo unspecified) | 12.1
73 | CCCNc1ccc(C(=O)NCCc2cccc(OC)c2)cn1 | -3.99
74 | Cn1nc(C(=O)N2CCCCC2c2nc3cc(F)ccc3[nH]2)ccc1=O (stereo unspecified) | 6.51
75 | O=C(c1ccccn1)N1C[C@H]2CCC[C@@]2(COCC2CCOCC2)C1 | -10.8
76 | O=C(c1ccon1)N1CCc2ncnc(NCc3ccccn3)c2CC1 | 0.424
77 | Cc1nc(CC(=O)NS(=O)(=O)c2cccc3cnccc23)cs1 | -110
78 | CN(C)c1ccc(NC(=O)NCC2CCOC2)cn1 (stereo unspecified) | -9.11
79 | CCn1c(C)nnc1CN(C)C1CCN(Cc2ccccn2)C1 (stereo unspecified) | -2.44
80 | Nc1cc(-c2nccnc2N2CCCC2)c2cc[nH]c2n1 | -11.5
81 | C[C@@H]1CN(C(=O)CCN2CCOCC2)CC[C@]1(C)O | -2.33

Reference: ChEMBL document CHEMBL3507680, “University of Dundee, Gates Library screen for HepG2 cell viability”
